Data from patent publication US20250108001A1, “TOPICAL OCULAR ADMINISTRATION OF AMBROXOL FOR OCULAR PAIN” (NeuVision Development LLC, priority 2022, published 2025).
Each block holds one compound with its values, some of them ahead of it.

What was measured:
Nav1.7 nociceptor = Nav1.7 nociceptor (Homo sapiens, UniProt Q15858); settings: versus lidocaine; cited from earlier work
rat NOP models = experiment: Rat eye-wipe assay, Epi-off ocular pain model, 2M NaCl challenge; type: in vivo
Description: With minor modification of established rat NOP models, ocular pain was created by removing corneal epithelium (Epi-off) under general anesthesia. 2M NaCl saline (in contrast to 5M NaCl used in previous studies) was used to trigger peripheral neuronal excitement in response to hyperosmolarity while minimizing the potential inherent irritancy to the cornea from 5M NaCl. Then, one hour was given to each rat to allow complete recovery from anesthesia before proceeding to subsequent study steps. […] Due to its short duration of action, a proparacaine group was not included in this study (FIG. 2). The rat eye-wipe assay is an established animal behavioral and neurophysiological tool for the assessment of corneal sensitivity to noxious stimuli (Price T J, et al., Br. J. Pharmacol.). Increased corneal sensitivity was shown in male rats following lacrimal gland excision which correlates with eye wiping behaviors in response to hypertonic saline (5M NaCl) (Meng I D, et al., Invest. Ophthalmol. Vis. Sci. 2015).

Nav1.8 nociceptor = Nav1.8 nociceptor (Homo sapiens, UniProt Q9Y5Y9); settings: versus lidocaine; cited from earlier work
eyes of rats = experiment: Corneal sensation by Cochet-Bonnet esthesiometer after one topical drop in rats; settings: rat eye; for minimum total corneal sensation preserved: at maximal effect (5-15 minutes), tactile sensation
cornea = settings: topical 0.1%, humans; cited from earlier work
[1] = single drop 0.5% ambroxol, Epi-off rats, 2M NaCl
[2] = 0.3% and 0.5% ambroxol HCl solutions

Chain of Nav1.8 nociceptor (Q9Y5Y9 whole entry): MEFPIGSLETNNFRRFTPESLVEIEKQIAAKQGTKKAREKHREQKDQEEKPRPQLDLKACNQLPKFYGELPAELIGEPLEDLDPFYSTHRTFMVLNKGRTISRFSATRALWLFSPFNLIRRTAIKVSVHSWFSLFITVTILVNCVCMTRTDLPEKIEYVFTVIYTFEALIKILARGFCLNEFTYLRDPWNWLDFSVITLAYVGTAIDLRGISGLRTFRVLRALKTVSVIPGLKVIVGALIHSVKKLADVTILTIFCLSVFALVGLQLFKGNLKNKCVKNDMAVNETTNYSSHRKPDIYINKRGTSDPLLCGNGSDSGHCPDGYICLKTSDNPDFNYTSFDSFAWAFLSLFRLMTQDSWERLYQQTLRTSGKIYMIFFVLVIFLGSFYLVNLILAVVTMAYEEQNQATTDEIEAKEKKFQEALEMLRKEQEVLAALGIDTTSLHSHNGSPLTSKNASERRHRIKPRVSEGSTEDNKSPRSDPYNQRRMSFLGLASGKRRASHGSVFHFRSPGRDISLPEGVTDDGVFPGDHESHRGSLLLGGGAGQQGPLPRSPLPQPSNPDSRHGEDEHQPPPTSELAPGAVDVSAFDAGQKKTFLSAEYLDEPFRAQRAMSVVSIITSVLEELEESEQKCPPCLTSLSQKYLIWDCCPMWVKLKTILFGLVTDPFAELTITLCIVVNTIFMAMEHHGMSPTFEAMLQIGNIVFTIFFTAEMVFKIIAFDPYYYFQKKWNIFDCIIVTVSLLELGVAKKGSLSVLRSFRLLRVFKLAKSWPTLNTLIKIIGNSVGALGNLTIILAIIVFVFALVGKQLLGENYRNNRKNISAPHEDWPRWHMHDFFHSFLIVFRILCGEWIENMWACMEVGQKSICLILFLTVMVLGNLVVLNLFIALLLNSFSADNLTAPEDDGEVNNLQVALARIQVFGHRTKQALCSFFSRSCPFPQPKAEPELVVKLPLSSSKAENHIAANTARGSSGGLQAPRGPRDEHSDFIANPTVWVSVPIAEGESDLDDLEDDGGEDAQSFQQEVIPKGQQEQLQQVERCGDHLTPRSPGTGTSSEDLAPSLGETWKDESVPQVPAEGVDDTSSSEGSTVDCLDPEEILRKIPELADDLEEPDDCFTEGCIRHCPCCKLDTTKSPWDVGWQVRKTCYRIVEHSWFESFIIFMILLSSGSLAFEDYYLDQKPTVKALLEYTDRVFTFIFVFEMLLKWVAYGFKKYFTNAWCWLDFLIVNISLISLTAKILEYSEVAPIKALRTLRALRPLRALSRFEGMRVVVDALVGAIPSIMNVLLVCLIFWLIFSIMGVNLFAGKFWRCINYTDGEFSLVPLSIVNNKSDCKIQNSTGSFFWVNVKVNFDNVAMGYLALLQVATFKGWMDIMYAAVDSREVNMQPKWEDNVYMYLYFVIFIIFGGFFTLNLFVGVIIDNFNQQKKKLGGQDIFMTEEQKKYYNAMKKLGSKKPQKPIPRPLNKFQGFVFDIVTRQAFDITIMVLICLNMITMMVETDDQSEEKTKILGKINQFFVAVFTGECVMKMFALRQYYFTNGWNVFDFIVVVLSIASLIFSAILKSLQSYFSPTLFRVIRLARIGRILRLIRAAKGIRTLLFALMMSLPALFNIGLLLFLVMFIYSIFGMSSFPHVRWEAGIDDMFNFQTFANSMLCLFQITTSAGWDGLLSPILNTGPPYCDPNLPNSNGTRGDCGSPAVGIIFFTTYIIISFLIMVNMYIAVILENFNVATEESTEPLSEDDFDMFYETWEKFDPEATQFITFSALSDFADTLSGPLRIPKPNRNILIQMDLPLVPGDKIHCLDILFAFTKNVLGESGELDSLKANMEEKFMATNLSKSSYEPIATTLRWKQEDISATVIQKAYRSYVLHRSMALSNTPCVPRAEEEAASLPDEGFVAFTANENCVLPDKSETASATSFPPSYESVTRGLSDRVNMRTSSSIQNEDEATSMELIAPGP
Chain of Nav1.7 nociceptor (Q15858 whole entry): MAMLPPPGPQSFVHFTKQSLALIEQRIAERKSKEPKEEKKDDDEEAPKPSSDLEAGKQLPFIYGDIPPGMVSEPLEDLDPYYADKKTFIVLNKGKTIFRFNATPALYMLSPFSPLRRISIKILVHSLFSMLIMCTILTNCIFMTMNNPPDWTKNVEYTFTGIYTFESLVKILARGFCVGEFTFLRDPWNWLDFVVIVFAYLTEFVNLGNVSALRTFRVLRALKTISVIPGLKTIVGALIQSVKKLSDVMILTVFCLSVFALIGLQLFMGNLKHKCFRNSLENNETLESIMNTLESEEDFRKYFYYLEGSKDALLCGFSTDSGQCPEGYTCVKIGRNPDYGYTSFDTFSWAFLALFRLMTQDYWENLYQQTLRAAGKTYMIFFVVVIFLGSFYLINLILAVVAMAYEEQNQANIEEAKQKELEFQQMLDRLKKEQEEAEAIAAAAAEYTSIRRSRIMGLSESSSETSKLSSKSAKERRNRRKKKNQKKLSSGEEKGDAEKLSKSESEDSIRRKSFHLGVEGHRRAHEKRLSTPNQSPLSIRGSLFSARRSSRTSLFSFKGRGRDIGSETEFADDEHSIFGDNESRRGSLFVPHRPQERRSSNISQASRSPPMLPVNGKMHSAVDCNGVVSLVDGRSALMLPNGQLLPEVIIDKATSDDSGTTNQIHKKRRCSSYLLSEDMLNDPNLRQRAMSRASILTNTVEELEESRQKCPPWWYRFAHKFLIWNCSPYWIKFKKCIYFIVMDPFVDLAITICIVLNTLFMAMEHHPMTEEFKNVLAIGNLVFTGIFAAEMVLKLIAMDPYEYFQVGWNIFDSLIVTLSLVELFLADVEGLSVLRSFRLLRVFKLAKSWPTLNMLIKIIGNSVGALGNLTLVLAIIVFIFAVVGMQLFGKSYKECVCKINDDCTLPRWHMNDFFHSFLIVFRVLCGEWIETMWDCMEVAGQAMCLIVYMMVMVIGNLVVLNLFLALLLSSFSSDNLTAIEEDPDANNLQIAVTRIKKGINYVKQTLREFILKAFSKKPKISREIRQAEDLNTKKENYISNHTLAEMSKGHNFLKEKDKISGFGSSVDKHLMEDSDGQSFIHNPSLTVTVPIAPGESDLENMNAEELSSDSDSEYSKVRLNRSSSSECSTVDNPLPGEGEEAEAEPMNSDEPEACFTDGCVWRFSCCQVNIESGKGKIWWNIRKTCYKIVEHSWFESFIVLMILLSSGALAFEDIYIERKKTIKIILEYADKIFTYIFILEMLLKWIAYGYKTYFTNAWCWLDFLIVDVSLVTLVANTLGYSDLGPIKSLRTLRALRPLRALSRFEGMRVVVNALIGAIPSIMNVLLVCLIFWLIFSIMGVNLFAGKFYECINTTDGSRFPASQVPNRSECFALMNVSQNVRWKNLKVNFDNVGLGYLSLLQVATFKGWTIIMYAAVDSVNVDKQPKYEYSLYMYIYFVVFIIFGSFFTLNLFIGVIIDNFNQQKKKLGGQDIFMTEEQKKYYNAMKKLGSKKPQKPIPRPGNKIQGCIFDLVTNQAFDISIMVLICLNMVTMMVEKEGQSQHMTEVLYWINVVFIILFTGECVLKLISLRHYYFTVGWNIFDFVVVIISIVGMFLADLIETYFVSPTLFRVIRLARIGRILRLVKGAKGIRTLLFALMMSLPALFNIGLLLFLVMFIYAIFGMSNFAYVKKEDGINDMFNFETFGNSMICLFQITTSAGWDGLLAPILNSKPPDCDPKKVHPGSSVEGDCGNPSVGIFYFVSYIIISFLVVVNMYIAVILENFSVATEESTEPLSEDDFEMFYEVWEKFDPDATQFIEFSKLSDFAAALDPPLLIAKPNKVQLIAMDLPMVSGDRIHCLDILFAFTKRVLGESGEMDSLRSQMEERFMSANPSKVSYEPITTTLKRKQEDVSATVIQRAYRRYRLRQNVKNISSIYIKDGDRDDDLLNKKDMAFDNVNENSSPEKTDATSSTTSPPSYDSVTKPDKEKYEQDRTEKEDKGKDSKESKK

- sensitivity to hyperosmolarity at the ocular surface (rat NOP models; [1]): obviously preserved
SMILES: Nc1c(Br)cc(Br)cc1CN[C@H]1CC[C@H](O)CC1 [ambroxol, trans-4-(2-Amino-3,5-dibrombenzylamino)-cyclohexanol]
- binding affinity for the Nav1.7 nociceptor relative to lidocaine (Nav1.7 nociceptor): same level
- time of maximal effect in eye-wipe assay (rat NOP models; 0.5% ambroxol-containing formulation, after administration): up to 30 min
- duration of reduction in eye wiping count/min (rat NOP models; [1]): at least 4 hours
- eye wiping count/min in response to 2M NaCl (rat NOP models; single drop 0.5% ambroxol, Epi-off rats, versus carrier buffer control): significant reduction
- potency in binding the Nav1.8 nociceptor relative to lidocaine (Nav1.8 nociceptor): 40 times
- potency of Nav1.8 block relative to lidocaine (Nav1.8 nociceptor): approximately 40 times
- minimum total corneal sensation preserved (eyes of rats; 0.3% ambroxol HCl solution): ≥ 15%
- duration of drug action on corneal sensation (eyes of rats; [2]): about 4 hours
- time of maximal effect on corneal sensation (eyes of rats; [2]): 5 to 15 min
- minimum total corneal sensation preserved (eyes of rats; 0.5% ambroxol HCl solution): ≥ 15%

SMILES: O=C(O)Cc1ccccc1Nc1c(Cl)cccc1Cl [diclofenac]
- cornea anesthetic effect (cornea): does not have clinically significant cornea anesthetic effect

SMILES: CCCOc1ccc(C(=O)OCCN(CC)CC)cc1N [proparacaine]
- change in eye wiping counts before (Epi-on) and after surgery (Epi-off) (rat NOP models; 0.5% proparacaine HCl, at its maximal effect (5 min), data not shown): no significant change
- corneal sensor network block (FIG. 1) (eyes of rats; 0.5% proparacaine): completely blocked
